In patent US10973863B2, “Method for regulating, preventing and/or treating pulmonary injury” (SINPHAR PHARMACEUTICAL CO., LTD., priority 2017, dated 2021):

Assays:
MMP-12 = assay: Western blot: MMP-12 expression in LPS-treated NR8383 cells; type: cell-based, rat; details: 0.01 μg/mL LPS; 12.5 μg/mL; 24 hours; vs control group
Method: (§1) Rat alveolar macrophage NR8383 cells were divided into six groups and separately cultivated with the following media for 24 hours: • (1) Control group: a macrophage growth medium containing 0.01 μg/mL LPS; • (2) Positive control group: a macrophage growth medium containing 0.01 μg/mL LPS and 1 μM Dex; and • (3) Extract A group (including four sub-groups): a macrophage growth medium containing 0.01 μg/mL LPS and the extract A provided by [preparation example A-2-2], wherein the extract A is present in the four sub-groups at a concentration of 6.25, 12.5, 25 and 50 μg/mL respectively.
(§2) Thereafter, the proteins in the cells of each group were extracted and then subjected to a Western blot to measure the expression level of pro-form MMP-9 (i.e., the zymogen form of MMP-9), active-form MMP-9 and MMP-12. The relative expression level of pro-form MMP-9, active-form MMP-9 and MMP-12 of each group was calculated by using the results of the control group as a basis (i.e., the expression level of control group was served as 1-fold).
(§3) Rat alveolar macrophage NR8383 cells were divided into ten groups and separately cultivated with the following media for 24 hours:
(§4) (1) Control group: a macrophage growth medium containing 0.01 μg/mL LPS;
(§5) (2) Positive control group: a macrophage growth medium containing 0.01 μg/mL LPS and 1 μM Dex; […]

MMP-9 = assay: Gelatin zymography: LPS-activated active expression of MMP-9 in NR8383 cells; type: cell-based, rat; details: Table 4, LPS 1 μg/mL, 24 hours
Excerpt: As indicated above, when an inflammatory response occurs in animal's pulmonary tissue, the active inflammatory cells will secret MMPs that will destroy the pulmonary tissue structure, cause more serious pulmonary injury, and lead to the decrement in or the loss of pulmonary functions. […]
Thereafter, the medium of each group was collected and respectively subjected to the following procedures. A 10% polyacrylamide gel containing 0.2% gelatin was used to carry out the sodium dodecyl sulfate polyacrylamide gel electrophoresis (SDS-PAGE). After the electrophoresis was completed, the gel was sequentially soaked in 2.5% Triton X-100 solution for 90 minutes to remove SDS, soaked in distillation-distillation water (ddH2O) for 30 minutes, and placed in a reaction solution (50 mM Tris-HCl buffer containing 10 mM CaCl2 and 0.02% NaN3) at a temperature of 37° C. for 18 hours. After the foregoing reaction was completed, the gel was stained by a Coomassie blue staining solution, and the image of stained gel was taken and subjected to an image analysis. The image intensity (the image intensity was calculated based on the size of area and the shade of color) of highlight band (i.e., the gelatin in this area was degraded by MMPs, wherein the area locating around 95 kD molecular weight) on the gel of each group can reflect the active expression of MMP-9 of rat alveolar macrophage NR8383 cells under different conditions (the relative active expression of MMP-9 was calculated by serving the results of the blank group as 0% and serving that of the control group as 100%).
Rat alveolar macrophage NR8383 cells were divided into twenty-eight groups and separately cultivated with the following media for 24 hours: • (1) Blank group: a macrophage growth medium; • (2) Control group: a macrophage growth medium containing 1 μg/mL LPS; • (3) Positive control group: a macrophage growth medium containing 1 μg/mL LPS and 5 μM Prednisolone (a type of corticosteroid; abbreviated as “Pred”; purchased from Sigma-Aldrich); • (4) Extract C (including five sub-groups): a macrophage growth medium containing 1 μg/mL LPS and the extract C provided by [preparation example A-3-2], wherein the extract C is present in the five sub-groups at a concentration of […] respectively; • (5) Extract D (including five sub-groups): a macrophage growth medium containing 1 μg/mL UPS and the extract D provided by [preparation example A-4-2], wherein the extract D is present in the five sub-groups at a concentration of 0.78, 1.56, 3.13, 6.25 and 12.5 respectively; • (6) Extract E (including five sub-groups): a macrophage growth medium containing 1 μg/mL LPS and the extract E provided from [preparation example A-4-3], wherein the extract E is present in the five sub-groups at a concentration of 0.78, 1.56, 3.13, […], and 12.5 respectively; • (7) DATA group (including five sub-groups): a macrophage growth medium containing 1 μg/mL LPS and the dehydrotrametenolic acid (DTTA) provided by [preparation example C-1], wherein the dehydrotrametenolic acid (DTTA) is present in the five sub-groups at a concentration of 0.39, 0.78, 1.56, 3.13 and 6.25 μg/mL respectively; and • (8) PAA group (including live sub-groups): a macrophage growth medium containing 1 μg/mL LPS and the poricoic acid A (PAA) provided from [preparation example C-1], wherein the poricoic acid A (PAA) is present in the five sub-groups at a concentration of 6.25, 12.5, 25, 50 and 100 respectively.
Thereafter, the medium of each group was collected and analyzed by the analyzing procedures same as that of (1-1).

pro-form MMP-9 = assay: Western blot: pro-form MMP-9 expression in LPS-treated NR8383 cells; type: cell-based, rat; details: 0.01 μg/mL LPS; 12.5 μg/mL; 24 hours; vs control group
Method: as §1, §2, §3, §4, §5

Mucin 5AC = assay: Western blot: LPS-induced expression of Mucin 5AC in NCI-H929 cells; type: cell-based, human; details: 1 μg/mL LPS, 24 hours, vs control group
Excerpt: As indicated above, the hypersecretion of mucus in airway can be observed in the patients suffering from pulmonary injury-related diseases, such as chronic obstructive pulmonary disease and emphysema, and the mucus hypersecretion is associated with the overexpression of mucins in pulmonary tissue. Symptoms like the increased sputum production will occur in the patients suffering from the mucin hypersecretion in airway, and the increased sputum will accumulate in the airway and lung, thereby making the airway narrow and increasing respiratory resistance. To investigate the effects of active ingredients of FU-LING extract in regulating, preventing, and/or treating the pulmonary injury-related diseases, such as chronic obstructive pulmonary disease and emphysema, a Western blot was conducted to measure the inhibitory rate of active ingredients of FU-LING extract (tumulosic acid and poricoic acid A) on the LPS-induced expression of Mucin 5AC in human lung epithelial NCI-H929 cells.
Human lung epithelial NCI-H929 cells were divided into ten groups and separately cultivated with the following media for 24 hours:
(1) Control group: an epithelial cell growth medium containing […];
(2) Positive control group: an epithelial cell growth medium containing 1 μg/mL LPS and 10 μM Dex;
(3) TA group (including four sub-groups): an epithelial cell growth medium containing […] the tumulosic acid (TA) provided by [preparation example C-1], wherein the tumulosic acid (TA) is present in the four sub-groups at a concentration of 1.56, 3.13, 6.25 and 12.5 μg/mL respectively; and
(4) PAA group (including four sub-groups): an epithelial cell growth medium containing 1 μg/mL LPS the poricoic acid A (PAA) provided by [preparation example C-1], wherein the poricoic acid A (PAA) is present in the four sub-groups at a concentration of 6.25, 12.5, 25 and 50 μg/mL respectively.
Thereafter, the proteins in the cells of each group were extracted and then subjected to a Western blot to measure the expression level of Mucin 5AC. The relative expression level of Mucin 5AC of each group was calculated by using the results of the control group as a basis (i.e., the expression level of control group was served as 1-fold).

active-form MMP-9 = assay: Western blot: active-form MMP-9 expression in LPS-treated NR8383 cells; type: cell-based, rat; details: 0.01 μg/mL LPS; 12.5 μg/mL; 24 hours; vs control group
Method: as §1, §2, §3, §4, §5

With `C=C(CC[C@@H](C(=O)O)[C@H]1[C@H](O)C[C@@]2(C)C3=C(CC[C@]12C)[C@@]1(C)CC[C@H](O)C(C)(C)[C@@H]1CC3)C(C)C` [TA, tumulosic acid] the “Inhibitory rate on the expression level of MMP-12” value (MMP-12) was 45%, the “Relative active expression of MMP-9 (%)” value (MMP-9; 3.13 μg/mL) was 60.6% and the “Relative active expression of MMP-9 (%)” value (MMP-9; 6.25 μg/mL) was 28.4%. The “Relative active expression of MMP-9 (%)” value (MMP-9; 12.5 μg/mL) was 0%, the “Inhibitory rate on the expression level of pro-form MMP-9” value (pro-form MMP-9) was 53% and the “Inhibitory rate on LPS-induced expression of Mucin 5AC” value (Mucin 5AC; 1.56 μg/mL (low-dose)) was “up to 75%”. For the same compound, the “Inhibitory rate on LPS-induced expression of Mucin 5AC” value (Mucin 5AC; 12.5 μg/mL (high-dose)) was ≤ 81% and the “Inhibitory rate on the expression level of active-form MMP-9” value (active-form MMP-9) was 100%.
